Columns and labels:
MKN-45 = assay: Growth inhibition of human MKN45 cells after 48 hrs by SRB assay; format: functional, cell-based; conditions: MKN-45, 48 h
Tubulin = Tubulin (Bos taurus, UniProt Q6B856+Q862L2+Q862F3)
A549 = assay: Growth inhibition of human A549 cells after 48 hrs by SRB assay; format: functional, cell-based; conditions: A549, 48 h
KB = assay: Growth inhibition of human KB cells after 48 hrs by SRB assay; format: functional, cell-based
[1] = biological target: T1, Polyamine deacetylase HDAC10 (Homo sapiens, UniProt Q969S8); assay: Inhibition of human HDAC10 using RHKKAc as substrate by fluorescence assay
T1 sequence (Q969S8 whole entry): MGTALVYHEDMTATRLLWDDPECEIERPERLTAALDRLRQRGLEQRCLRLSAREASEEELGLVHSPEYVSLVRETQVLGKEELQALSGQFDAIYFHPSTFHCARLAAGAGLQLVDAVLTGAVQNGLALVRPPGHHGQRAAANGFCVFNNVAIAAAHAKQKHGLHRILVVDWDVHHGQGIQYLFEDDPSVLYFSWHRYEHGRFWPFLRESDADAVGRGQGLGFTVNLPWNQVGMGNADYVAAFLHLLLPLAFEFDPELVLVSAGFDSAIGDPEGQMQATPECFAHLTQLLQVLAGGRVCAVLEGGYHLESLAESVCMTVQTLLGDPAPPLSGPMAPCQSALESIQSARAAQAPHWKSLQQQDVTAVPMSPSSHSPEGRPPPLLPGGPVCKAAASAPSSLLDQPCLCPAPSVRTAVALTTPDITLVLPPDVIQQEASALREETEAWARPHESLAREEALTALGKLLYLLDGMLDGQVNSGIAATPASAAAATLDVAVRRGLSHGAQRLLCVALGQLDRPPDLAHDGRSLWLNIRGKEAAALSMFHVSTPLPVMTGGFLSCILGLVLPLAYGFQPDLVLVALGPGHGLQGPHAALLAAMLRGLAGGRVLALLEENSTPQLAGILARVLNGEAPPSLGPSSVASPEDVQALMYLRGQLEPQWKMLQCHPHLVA

Histone deacetylase 9 = Histone deacetylase 9 (Homo sapiens, UniProt Q9UKV0); assay: Inhibition of human HDAC9 using fluorogenic p53 (379-382) peptide RHKK(Ac) as substrate by fluorescence assay
Histone deacetylase 4 = Histone deacetylase 4 (Homo sapiens, UniProt P56524); assay: Inhibition of human HDAC4 using fluorogenic p53-derived peptide RHKK(Ac) as substrate by fluorescence assay
[2] = Growth inhibition of human KB-VIN10 cells after 48 hrs by SRB assay; format: functional; conditions: KB-VIN10, 48 h
Tubulin (Bos taurus) [3] = biological target: T2, Tubulin (Bos taurus) (UniProt Q6B856+Q862L2+Q862F3); conditions: at 1 µM
[4] = Growth inhibition of human KB-7d cells after 48 hrs by SRB assay; format: functional; conditions: KB7D
Tubulin (Bos taurus) [5] = biological target: T2, Tubulin (Bos taurus); conditions: at 5 µM
[6] = Growth inhibition of human KB-S15 cells after 48 hrs by SRB assay; format: functional; conditions: KB-S15, 48 h

Chain of Histone deacetylase 4 (P56524 whole entry): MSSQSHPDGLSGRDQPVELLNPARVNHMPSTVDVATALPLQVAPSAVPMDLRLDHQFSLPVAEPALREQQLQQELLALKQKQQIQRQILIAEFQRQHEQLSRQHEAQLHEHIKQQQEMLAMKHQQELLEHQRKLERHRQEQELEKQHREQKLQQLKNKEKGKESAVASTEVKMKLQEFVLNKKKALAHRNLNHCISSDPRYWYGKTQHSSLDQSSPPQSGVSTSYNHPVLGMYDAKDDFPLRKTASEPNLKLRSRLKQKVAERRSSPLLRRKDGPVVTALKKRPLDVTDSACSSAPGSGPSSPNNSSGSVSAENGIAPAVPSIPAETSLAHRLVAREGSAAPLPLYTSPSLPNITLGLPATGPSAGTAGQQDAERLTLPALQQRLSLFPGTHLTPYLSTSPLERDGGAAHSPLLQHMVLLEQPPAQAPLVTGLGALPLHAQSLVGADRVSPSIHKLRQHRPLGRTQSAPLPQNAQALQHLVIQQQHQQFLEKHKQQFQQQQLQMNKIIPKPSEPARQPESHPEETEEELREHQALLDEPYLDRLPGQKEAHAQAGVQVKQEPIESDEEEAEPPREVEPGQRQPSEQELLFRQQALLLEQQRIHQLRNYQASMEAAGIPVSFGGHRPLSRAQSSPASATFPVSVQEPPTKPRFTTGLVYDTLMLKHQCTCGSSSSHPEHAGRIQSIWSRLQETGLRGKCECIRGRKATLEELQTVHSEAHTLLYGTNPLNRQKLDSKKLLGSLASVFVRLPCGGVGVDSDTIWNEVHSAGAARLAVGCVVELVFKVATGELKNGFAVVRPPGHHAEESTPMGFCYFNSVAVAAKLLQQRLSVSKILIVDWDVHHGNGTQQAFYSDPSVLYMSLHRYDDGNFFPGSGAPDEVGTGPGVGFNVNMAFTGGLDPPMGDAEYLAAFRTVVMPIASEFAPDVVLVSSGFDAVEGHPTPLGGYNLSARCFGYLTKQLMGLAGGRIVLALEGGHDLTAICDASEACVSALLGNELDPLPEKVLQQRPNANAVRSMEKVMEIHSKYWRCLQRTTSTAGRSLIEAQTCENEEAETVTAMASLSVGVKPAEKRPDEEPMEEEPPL
Chain of Histone deacetylase 9 (Q9UKV0 whole entry): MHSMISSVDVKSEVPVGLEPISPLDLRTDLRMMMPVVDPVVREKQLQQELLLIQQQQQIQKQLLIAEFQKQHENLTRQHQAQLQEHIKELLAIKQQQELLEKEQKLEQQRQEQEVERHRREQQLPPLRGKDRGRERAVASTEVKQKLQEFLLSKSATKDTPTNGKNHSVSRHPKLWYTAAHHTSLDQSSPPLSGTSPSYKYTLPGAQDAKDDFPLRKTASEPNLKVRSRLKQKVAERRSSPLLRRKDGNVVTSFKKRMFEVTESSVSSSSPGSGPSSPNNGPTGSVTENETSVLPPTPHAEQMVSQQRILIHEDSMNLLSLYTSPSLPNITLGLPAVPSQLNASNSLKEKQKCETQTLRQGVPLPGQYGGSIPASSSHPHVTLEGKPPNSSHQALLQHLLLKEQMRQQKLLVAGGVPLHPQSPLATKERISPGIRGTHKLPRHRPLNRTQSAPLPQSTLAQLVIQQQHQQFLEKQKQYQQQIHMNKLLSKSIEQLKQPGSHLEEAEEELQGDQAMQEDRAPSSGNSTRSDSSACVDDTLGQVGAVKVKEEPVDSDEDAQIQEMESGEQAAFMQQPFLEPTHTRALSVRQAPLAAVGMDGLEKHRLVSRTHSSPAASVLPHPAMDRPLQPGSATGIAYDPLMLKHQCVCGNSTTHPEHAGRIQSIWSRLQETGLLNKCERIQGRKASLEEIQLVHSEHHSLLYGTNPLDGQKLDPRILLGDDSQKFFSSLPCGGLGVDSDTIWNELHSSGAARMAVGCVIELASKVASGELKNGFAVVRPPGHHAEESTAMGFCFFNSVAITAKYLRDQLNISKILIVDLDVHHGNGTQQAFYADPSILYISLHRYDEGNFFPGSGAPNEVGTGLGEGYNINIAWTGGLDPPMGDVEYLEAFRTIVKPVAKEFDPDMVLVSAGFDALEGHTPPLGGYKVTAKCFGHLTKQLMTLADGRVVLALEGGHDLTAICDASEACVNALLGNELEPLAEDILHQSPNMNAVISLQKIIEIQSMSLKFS

SMILES | IC50 (MKN-45) | IC50 (Tubulin) | IC50 (A549) | IC50 (KB) | further results
Nc1ccccc1NC(=O)c1ccc(CNc2cccc3c2N(S(=O)(=O)c2ccc(F)cc2)CC3)cc1 | 870 nM | 3700 nM | 930 nM | 540 nM | 
COc1ccc(S(=O)(=O)N2CCc3cccc(NCc4ccc(C(=O)Nc5ccc(N)cc5)cc4)c32)cc1 | 480 nM | 3700 nM | 570 nM | 260 nM | 
COc1ccc(S(=O)(=O)N2CCc3cccc(NCc4ccc(C(=O)Nc5ccccc5N)cc4)c32)cc1OC | 2300 nM | > 10000 nM | 2700 nM | 1400 nM | 
Nc1ccccc1NC(=O)c1ccc(CNc2cccc3c2N(S(=O)(=O)c2ccccc2)CC3)cc1 | 780 nM | 3200 nM | 870 nM | 260 nM | 
COc1ccc(S(=O)(=O)n2ccc3cccc(NCc4ccc(C(=O)Nc5ccccc5N)cc4)c32)cc1 | 440 nM | 3700 nM | 640 nM | 130 nM | 
Nc1ccccc1NC(=O)c1ccc(CNC(=O)OCc2cccnc2)cc1 [ENTINOSTAT] | 1200 nM |  |  | 520 nM | IC50 [1]: Not Active; IC50 (Histone deacetylase 9): Not Active; IC50 (Histone deacetylase 4): Not Active
COc1ccc(S(=O)(=O)n2ccc3ccc(NCc4ccc(C(=O)Nc5ccccc5N)cc4)cc32)cc1 | 2500 nM | > 10000 nM | 3900 nM | 1440 nM | 
COc1ccc(S(=O)(=O)N2CCc3cccc(NCc4ccc(C(=O)Nc5ccccc5O)cc4)c32)cc1 | 10000 nM | > 10000 nM | 10500 nM | 8700 nM | 
COc1ccc(S(=O)(=O)N2CCc3cc(NCc4ccc(C(=O)Nc5ccccc5N)cc4)ccc32)cc1 | 5000 nM | > 10000 nM | 8900 nM | 2100 nM | 
COc1ccc(S(=O)(=O)N2CCc3cccc(Nc4ccc(C(=O)Nc5ccccc5N)cc4)c32)cc1 | 140 nM | 2300 nM | 190 nM | 120 nM | IC50 [2]: 114 nM; inhibition (Tubulin (Bos taurus) [3]): 64.3%; IC50 [4]: 78.3 nM; inhibition (Tubulin (Bos taurus) [5]): 98.8%; IC50 [6]: 106 nM
COc1ccc(S(=O)(=O)N2CCc3cccc(NC(=O)c4ccc(C(=O)Nc5ccccc5N)cc4)c32)cc1 |  |  | > 10000 nM |  | 
COc1ccc(S(=O)(=O)N2CCc3ccc(NCc4ccc(C(=O)Nc5ccccc5N)cc4)cc32)cc1 | 2100 nM | > 10000 nM | 2400 nM | 870 nM | 
COc1ccc(S(=O)(=O)N2CCc3cccc(NCc4cccc(C(=O)Nc5ccccc5N)c4)c32)cc1 | 3900 nM | 8500 nM | 5700 nM | 2200 nM | 
COc1cccc(S(=O)(=O)N2CCc3cccc(NCc4ccc(C(=O)Nc5ccccc5N)cc4)c32)c1 | 800 nM | 3500 nM | 1100 nM | 780 nM | 
Nc1ccccc1NC(=O)c1ccc(CNc2cccc3c2N(S(=O)(=O)c2ccc(Cl)cc2)CC3)cc1 | 460 nM | 4000 nM | 560 nM | 210 nM | 
COc1ccc(S(=O)(=O)N2CCc3cccc(CCc4ccc(C(=O)Nc5ccccc5N)cc4)c32)cc1 | 130 nM | 2500 nM | 200 nM | 110 nM | 
COc1ccc(S(=O)(=O)N2CCc3cccc(/C=C/c4ccc(C(=O)Nc5ccccc5N)cc4)c32)cc1 | 200 nM | 2700 nM | 270 nM | 230 nM | 
COc1ccc(S(=O)(=O)N2CCc3cccc(NCc4ccc(C(=O)Nc5cccc(N)c5)cc4)c32)cc1 | 420 nM | 2300 nM | 450 nM | 200 nM | 
COc1ccc(S(=O)(=O)Nc2cccnc2Nc2ccc(O)cc2)cc1 [ABT-751] |  | 3200 nM |  |  | inhibition (Tubulin (Bos taurus) [3]): 40.2%; inhibition (Tubulin (Bos taurus) [5]): 71.6%
N#Cc1ccc(S(=O)(=O)N2CCc3cccc(NCc4ccc(C(=O)Nc5ccccc5N)cc4)c32)cc1 | 880 nM | 6400 nM | 920 nM | 560 nM | 
Nc1ccccc1NC(=O)c1ccc(CNc2cccc3c2N(S(=O)(=O)c2ccc(O)cc2)CC3)cc1 | 780 nM | 3300 nM | 860 nM | 440 nM | 

Reference: ChEMBL document CHEMBL4382249, “1-Arylsulfonyl indoline-benzamides as a new antitubulin agents, with inhibition of histone deacetylase” (Eur J Med Chem, 2019)
